Assay results from patent publication US20260308159A1, “BICYCLIC HETEROARYLAMIDES HAVING GPR68 MODULATING ACTIVITY” (RECURSION PHARMACEUTICALS, INC., priority 2023, published 2026).

Molecular target: T1, human GPR68 (Homo sapiens, UniProt Q15743)
T1 construct: encoding full-length human GPR68 (uniprot ID: Q15743); expressed in transfected cells; host or cells: HEK293T
Assay: GPR68 Biochemical Assay (Promega GloSensor cAMP assay, GPR68 antagonism)
Format: cell-based
Conditions: HEK293T cells transiently expressing hGPR68, antagonism of pH 5.5 stimulated cAMP, 15 min, read-out: hGPR68 IC50
Outline: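 Readout is GloSensor cAMP luminescence after 15 min at room temperature, normalised between pH 5.5 stimulation and pH 8.0 minimum controls; IC50 fitted sigmoidally. Test compounds, up to 50 μM final (9-point half-log, 0.5% DMSO), were co-added with pH 5.5 buffer to HEK293T cells transiently expressing full-length human GPR68 plus GloSensor.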

T1 sequence (Q15743 whole entry): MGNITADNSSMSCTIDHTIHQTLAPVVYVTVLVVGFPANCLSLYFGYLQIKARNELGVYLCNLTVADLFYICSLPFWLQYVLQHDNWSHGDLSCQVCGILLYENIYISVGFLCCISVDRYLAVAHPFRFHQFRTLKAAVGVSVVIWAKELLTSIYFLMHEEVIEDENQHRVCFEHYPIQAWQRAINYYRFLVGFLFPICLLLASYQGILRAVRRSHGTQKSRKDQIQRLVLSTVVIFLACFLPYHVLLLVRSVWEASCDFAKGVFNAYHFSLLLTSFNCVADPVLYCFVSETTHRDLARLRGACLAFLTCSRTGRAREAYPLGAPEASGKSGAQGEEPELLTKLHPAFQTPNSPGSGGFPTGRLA

Question: Which IC50 does the source give for `COCc1nn2c(C(=O)NC3CCC(F)(F)c4cc(F)ccc43)ccnc2c1C(N)=O` (stereo not shown) [Compound 239, 2-(methoxymethyl)-N7-(4,4,6-trifluorotetralin-1-yl)pyrazolo[1,5-a]pyrimidine-3,7-dicarboxamide] here?
Answer: < 50 nM

Question: Which IC50 does the source give for `NC(=O)c1c(C2CC2)nn2c(C(=O)N[C@H]3CCOc4cc(F)ccc43)ccnc12` [Compound 113, 2-cyclopropyl-N7-[(4S)-7-fluorochroman-4-yl]pyrazolo[1,5-a]pyrimidine-3,7-dicarboxamide] here?
Answer: < 50 nM

Question: How did the IC50 turn out when `COCc1nn2c(C(=O)N[C@H]3C[C@@H](OC(F)(F)F)C3)ccnc2c1C(N)=O` [Compound 61, 2-(methoxymethyl)-N7-[cis-3-(trifluoromethoxy)cyclobutyl]pyrazolo[1,5-a]pyrimidine-3,7-dicarboxamide] was run?
Answer: < 50 nM

Question: Which IC50 does the source give for `COCc1nn2c(C(=O)NC3COc4ccc(F)cc4C3)ccnc2c1C(N)=O` (stereo not shown) [Compound 196, N7-(6-fluorochroman-3-yl)-2-(methoxymethyl)pyrazolo[1,5-a]pyrimidine-3,7-dicarboxamide] here?
Answer: < 50 nM

Question: `NC(=O)c1c(C2CC2)nn2c(C(=O)N[C@H]3CCS(=O)(=O)c4ccccc43)ccnc12` [Compound 236, 2-cyclopropyl-N7-[(4S)-1,1-dioxo-3,4-dihydro-2H-thiochromen-4-yl]pyrazolo[1,5-a]pyrimidine-3,7-dicarboxamide] was tested. Which IC50 did it give?
Answer: < 50 nM

Question: How did the IC50 turn out when `COCc1nn2c(C(=O)N[C@H]3COc4c(Cl)cccc43)ccnc2c1C(N)=O` [Compound 169, N7-[(3R)-7-chloro-2,3-dihydrobenzofuran-3-yl]-2-(methoxymethyl)pyrazolo[1,5-a]pyrimidine-3,7-dicarboxamide] was run?
Answer: < 50 nM

Question: How did the IC50 turn out when `COCc1nn2c(C(=O)N[C@H]3C[C@H](OC(F)(F)F)C3)ccnc2c1C(N)=O` [Compound 224, 2-(methoxymethyl)-N7-[trans-3-(trifluoromethoxy)cyclobutyl]pyrazolo[1,5-a]pyrimidine-3,7-dicarboxamide] was run?
Answer: 50 to 500 nM

Question: For `COCc1nn2c(C(=O)NC3Cc4ccncc4C3)ccnc2c1C(N)=O` (stereo not shown) [Compound 170, N7-(6,7-dihydro-5H-cyclopenta[c]pyridin-6-yl)-2-(methoxymethyl)pyrazolo[1,5-a]pyrimidine-3,7-dicarboxamide], which IC50 is on record?
Answer: < 50 nM

Question: Which IC50 does the source give for `COCc1nc2c(C(=O)NC3Cc4cccnc4C3)ccnn2c1C(N)=O` (stereo not shown) [Compound 104, N8-(6,7-dihydro-5H-cyclopenta[b]pyridin-6-yl)-2-(methoxymethyl)imidazo[1,2-b]pyridazine-3,8-dicarboxamide] here?
Answer: 50 to 500 nM

Question: `COCc1nn2c(C(=O)NC3COc4cc(F)cc(F)c43)ccnc2c1C(N)=O` (stereo not shown) [Compound 153, N7-(4,6-difluoro-2,3-dihydrobenzofuran-3-yl)-2-(methoxymethyl)pyrazolo[1,5-a]pyrimidine-3,7-dicarboxamide] was tested. Which IC50 did it give?
Answer: < 50 nM

Question: `COCc1nn2c(C(=O)NC3COc4ncccc43)ccnc2c1C(N)=O` (stereo not shown) [Compound 184, N7-(2,3-dihydrofuro[2,3-b]pyridin-3-yl)-2-(methoxymethyl)pyrazolo[1,5-a]pyrimidine-3,7-dicarboxamide] was tested. Which IC50 did it give?
Answer: < 50 nM

Question: With `COCc1nn2c(C(=O)N3CCN(c4ncccc4C(F)(F)F)CC3)ccnc2c1C(N)=O` [Compound 89, 2-(methoxymethyl)-7-[4-[3-(trifluoromethyl)-2-pyridyl]piperazine-1-carbonyl]pyrazolo[1,5-a]pyrimidine-3-carboxamide] as the molecule, how does the IC50 read?
Answer: 50000 to 100000 nM

Question: How did the IC50 turn out when `COCc1nc2c(C(=O)NC3CCC(F)(F)CC3)ccnn2c1C(N)=O` [Compound 109, N8-(4,4-difluorocyclohexyl)-2-(methoxymethyl)imidazo[1,2-b]pyridazine-3,8-dicarboxamide] was run?
Answer: < 50 nM

Question: How did the IC50 turn out when `COCc1nn2c(C(=O)NC3CCS(=O)(=O)c4ccccc43)cc(C)nc2c1C(N)=O` (stereo not shown) [Compound 241, N7-(1,1-dioxo-3,4-dihydro-2H-thiochromen-4-yl)-2-(methoxymethyl)-5-methyl-pyrazolo[1,5-a]pyrimidine-3,7-dicarboxamide] was run?
Answer: 50 to 500 nM

Question: Which IC50 does the source give for `Cc1nc2c(C(=O)NC3CC(F)(F)C3)ccnn2c1C(N)=O` [Compound 26, N8-(3,3-difluorocyclobutyl)-2-methyl-imidazo[1,2-b]pyridazine-3,8-dicarboxamide] here?
Answer: 50 to 500 nM

Question: With `COCc1nn2c(C(=O)NC3CCC(F)(F)CC3)ccnc2c1C(N)=O` [Compound 80, N7-(4,4-difluorocyclohexyl)-2-(methoxymethyl)pyrazolo[1,5-a]pyrimidine-3,7-dicarboxamide] as the molecule, how does the IC50 read?
Answer: < 50 nM

Question: `COCc1nn2c(C(=O)NC3Cc4cccnc4C3)ccnc2c1C(N)=O` (single isomer, unassigned) [Compound 147, N7-(6,7-dihydro-5H-cyclopenta[b]pyridin-6-yl)-2-(methoxymethyl)pyrazolo[1,5-a]pyrimidine-3,7-dicarboxamide] was tested. Which IC50 did it give?
Answer: < 50 nM

Question: For `CCOCc1nn2c(C(=O)N[C@H]3C[C@@H](OC(F)(F)F)C3)ccnc2c1C(N)=O` [Compound 205, 2-(ethoxymethyl)-N7-[cis-3-(trifluoromethoxy)cyclobutyl]pyrazolo[1,5-a]pyrimidine-3,7-dicarboxamide], which IC50 is on record?
Answer: 50 to 500 nM

Question: For `COCc1nn2c(C(=O)NC3Cc4cc(F)cc(F)c4C3)ccnc2c1C(N)=O` (stereo not shown) [Compound 92, N7-(4,6-difluoroindan-2-yl)-2-(methoxymethyl)pyrazolo[1,5-a]pyrimidine-3,7-dicarboxamide], which IC50 is on record?
Answer: < 50 nM

Question: `COCc1nc2c(C(=O)NC3Cc4ccccc43)ccnn2c1C(N)=O` (stereo not shown) [Compound 106, N8-(7-bicyclo[4.2.0]octa-1,3,5-trienyl)-2-(methoxymethyl)imidazo[1,2-b]pyridazine-3,8-dicarboxamide] was tested. Which IC50 did it give?
Answer: < 50 nM

Question: With `NC(=O)c1cnn2c(C(=O)NC3CCC(F)(F)CC3)ccnc12` [Compound 103, N7-(4,4-difluorocyclohexyl)pyrazolo[1,5-a]pyrimidine-3,7-dicarboxamide] as the molecule, how does the IC50 read?
Answer: 500 to 5000 nM

Question: How did the IC50 turn out when `COCc1nn2c(C(=O)NC3Cc4cccc(F)c4C3)ccnc2c1C(N)=O` (stereo not shown) [Compound 91, N7-(4-fluoroindan-2-yl)-2-(methoxymethyl)pyrazolo[1,5-a]pyrimidine-3,7-dicarboxamide] was run?
Answer: < 50 nM

Question: For `CO[C@H]1C[C@@H](NC(=O)c2ccnc3c(C(N)=O)cnn23)C1` [Compound 11, N7-(cis-3-methoxycyclobutyl)pyrazolo[1,5-a]pyrimidine-3,7-dicarboxamide], which IC50 is on record?
Answer: 5000 to 50000 nM

Question: `[2H]C([2H])([2H])OCc1nn2c(C(=O)N[C@H]3C[C@@H](OC(F)(F)F)C3)ccnc2c1C(N)=O` [Compound 157, 2-(trideuteriomethoxymethyl)-N7-[cis-3-(trifluoromethoxy)cyclobutyl]pyrazolo[1,5-a]pyrimidine-3,7-dicarboxamide] was tested. Which IC50 did it give?
Answer: < 50 nM

Question: How did the IC50 turn out when `CNCc1nn2c(C(=O)NC3Cc4ccccc4C3)ccnc2c1C(N)=O` [Compound 30, N7-indan-2-yl-2-(methylaminomethyl)pyrazolo[1,5-a]pyrimidine-3,7-dicarboxamide] was run?
Answer: 500 to 5000 nM

Question: With `Cc1nn2c(C(=O)NC3COc4ccccc4C3)ccnc2c1C(N)=O` (stereo not shown) [Compound 47, N7-chroman-3-yl-2-methyl-pyrazolo[1,5-a]pyrimidine-3,7-dicarboxamide] as the molecule, how does the IC50 read?
Answer: 500 to 5000 nM

Question: How did the IC50 turn out when `CCOCc1nn2c(C(=O)NC3Cc4ccccc4C3)ccnc2c1C(N)=O` [Compound 202, 2-(ethoxymethyl)-N7-indan-2-yl-pyrazolo[1,5-a]pyrimidine-3,7-dicarboxamide] was run?
Answer: < 50 nM

Question: Which IC50 does the source give for `NC(=O)c1cnn2c(C(=O)NC3CNc4ncccc4C3)ccnc12` (stereo not shown) [Compound 20, N7-(1,2,3,4-tetrahydro-1,8-naphthyridin-3-yl)pyrazolo[1,5-a]pyrimidine-3,7-dicarboxamide] here?
Answer: 5000 to 50000 nM

Question: With `COc1ccc2c(c1)CC(NC(=O)c1ccnc3c(C(N)=O)cnn13)C2` (stereo not shown) [Compound 3, N7-(5-methoxyindan-2-yl)pyrazolo[1,5-a]pyrimidine-3,7-dicarboxamide] as the molecule, how does the IC50 read?
Answer: 50000 to 100000 nM

Question: Which IC50 does the source give for `CNc1nn2c(C(=O)N[C@H]3C[C@@H](OC(F)(F)F)C3)ccnc2c1C(N)=O` [Compound 145, 2-(methylamino)-N7-[cis-3-(trifluoromethoxy)cyclobutyl]pyrazolo[1,5-a]pyrimidine-3,7-dicarboxamide] here?
Answer: < 50 nM

Question: `NC(=O)c1cnn2c(C(=O)NC3CC(F)(F)C3)ccnc12` [Compound 102, N7-(3,3-difluorocyclobutyl)pyrazolo[1,5-a]pyrimidine-3,7-dicarboxamide] was tested. Which IC50 did it give?
Answer: 500 to 5000 nM

Question: How did the IC50 turn out when `CSCc1nn2c(C(=O)NC3Cc4ccccc4C3)ccnc2c1C(N)=O` [Compound 214, N7-indan-2-yl-2-(methylsulfanylmethyl)pyrazolo[1,5-a]pyrimidine-3,7-dicarboxamide] was run?
Answer: < 50 nM

Question: How did the IC50 turn out when `COCc1nn2c(C(=O)N[C@H]3CC[C@@H](C)CC3)ccnc2c1C(N)=O` [Compound 84, 2-(methoxymethyl)-N7-(cis-4-methylcyclohexyl)pyrazolo[1,5-a]pyrimidine-3,7-dicarboxamide] was run?
Answer: 500 to 5000 nM

Question: How did the IC50 turn out when `CC(C)c1nn2c(C(=O)NC3CS(=O)(=O)c4ccccc43)ccnc2c1C(N)=O` (stereo not shown) [Compound 228, N7-(1,1-dioxo-2,3-dihydrobenzothiophen-3-yl)-2-isopropyl-pyrazolo[1,5-a]pyrimidine-3,7-dicarboxamide] was run?
Answer: < 50 nM

Question: `NC(=O)c1c(C2CC2)nn2c(C(=O)N[C@H]3C[C@@H](OC(F)(F)F)C3)ccnc12` [Compound 111, 2-cyclopropyl-N7-[cis-3-(trifluoromethoxy)cyclobutyl]pyrazolo[1,5-a]pyrimidine-3,7-dicarboxamide] was tested. Which IC50 did it give?
Answer: < 50 nM

Same assay, conditions: hGPR68 IC50, HEK293T cells transiently expressing hGPR68, antagonism of pH 5.5 stimulated cAMP, 15 min

Question: Which IC50 does the source give for `COCc1nn2c(C(=O)N[C@H]3C[C@](C)(F)C3)ccnc2c1C(N)=O` [Compound 94, N7-(trans-3-fluoro-3-methyl-cyclobutyl)-2-(methoxymethyl)pyrazolo[1,5-a]pyrimidine-3,7-dicarboxamide] here?
Answer: 50 to 500 nM

Question: With `CC(C)OCc1nn2c(C(=O)NC3Cc4ccccc4C3)ccnc2c1C(N)=O` [Compound 27, N7-indan-2-yl-2-(isopropoxymethyl)pyrazolo[1,5-a]pyrimidine-3,7-dicarboxamide] as the molecule, how does the IC50 read?
Answer: < 50 nM
